Test results as given in publication PMC12657942, “Measurement and modeling of rizatriptan in supercritical CO2 for pharmaceutical processing” (Scientific Reports, 2025).

Key:
[1] = Enthalpies (total, vaporization, solvation) derived from density-based solubility models; assay type: physicochemical; conditions: SC-CO2
Procedure: This study thoroughly examines the solubility of rizatriptan in SC-CO2 for pharmaceutical processing by supercritical fluid technology. A series of experimental solubility measurements were conducted at a range of temperatures, from 308.2 to 338.2 K, and pressures ranging from 12 to 30 megapascals. Seven density-based models ( Chrastil, Bartle, K–J, Méndez–Santiago–Teja, Bian et al., and Sodeifian et al. (Ⅰ and Ⅱ)) and three equations of state (Peng–Robinson, Soave–Redlich–Kwong, and regular solution) were employed to analyze the resulting data. Additionally, the enthalpies of the total, vaporization, and solvation processes were derived to elucidate phase behavior.
This leads to the logarithmic relationship, where the enthalpy term combines solvation and vaporization effects
The Bartle model extends the concept by normalizing solubility with pressure and using a reduced density term, allowing direct estimation of the solute’s heat of vaporization from parameter. […] The MST model was derived from a Taylor expansion of the Helmholtz free energy near the solvent’s critical point, focusing on infinite dilution behavior. By incorporating the Clausius–Clapeyron equation for missing sublimation pressure data, it becomes a robust three-parameter tool. It excels in self-consistency checks, where plotting ) against density (ρ), should yield a single line for reliable data. […]

[2] = Solubility of rizatriptan in supercritical CO2, static gravimetric method; assay type: physicochemical
Procedure: A specialized high-pressure system is employed to measure the solubility of rizatriptan using gravimetric techniques in a supercritical CO2[6]. A 200 mL vessel capable of withstanding pressures up to 35 MPa and temperatures up to 423 K is prepared with leak-free seals, valves, and fittings. All valves and connectors were 1/8 inch in size. The system’s pressure and temperature sensors are calibrated for accuracy. Next, 2000 mg of rizatriptan powder is weighed precisely using an analytical balance with 0.01 mg of sensitivity. The powder is then compacted into 5-mm diameter tablets to ensure uniformity and structural integrity. The tablets are placed in a basket inside the vessel to maximize their exposure to SC-CO2. CO2 is introduced gradually using a high-precision pump (SC-1000, SUPEREX), with the pressure increased in 0.05 MPa increments to maintain stability. The pressure is monitored and held within ± 0.01 MPa. Temperature is controlled within ± 0.1 K using a thermocouple, and the mixture is stirred at 250 rpm to ensure uniformity. […] The pressure and temperature indicators are checked to ensure stability. After equilibration, the vessel is carefully depressurized to ambient conditions to halt dissolution without losing the sample. The remaining tablets are then removed and cleaned of residual CO2. If needed, they are dried in a desiccator. The undissolved drug is weighed using a high-precision balance. The experiment is replicated at least three times to calculate the mean solubility and standard deviation. The following formula was used to calculate the mass of dissolved rizatriptan:1
Include the molecular weights of rizatriptan ([…]) and CO2 (44.01 g/mol) in the mole fraction calculations.2 3 4 5
The measurements were conducted at four isotherms (308.2 K, 318.2 K, 328.2 K, and 338.2 K) and […] pressure points (12, 15, 18, 21, 24, 27, 30 MPa). Table 3 documents the experimental conditions, including temperature, pressure, SC-CO2 density, mole fraction, standard deviation, and solubility in grams per liter.

- enthalpy of vaporization [1]: 12.08 kcal/mol
- overall (total) enthalpy [1]: 9.097 kcal/mol
- mole fraction in SC-CO2 ([2]; 308.2 K, 12 MPa): 0.09 × 10^−4
- mole fraction in SC-CO2 ([2]; 308.2 K, 30 MPa): 0.286 × 10^−4
- mole fraction in SC-CO2 ([2]; 328.2 K, 12 MPa): 0.45 × 10^−5
- mole fraction in SC-CO2 ([2]; 328.2 K, 30 MPa): 3.80 × 10^−5
- mole fraction in SC-CO2 ([2]; 338.2 K, 12 MPa): 0.024 × 10^−4
- mole fraction in SC-CO2 ([2]; 338.2 K, 30 MPa): 0.419 × 10^−4
- mole fraction y in SC-CO2 ([2]; 338.2 K, 30 MPa): 4.19 × 10^−5
- Experimental mole fraction (y) in supercritical carbon dioxide, y × 10^4 ([2]; T 308.0 K (text 308.2 K), P 12 MPa, ρCO2 768.52 kg/m^3): 0.090 × 10^4
- Experimental mole fraction (y) in supercritical carbon dioxide, y × 10^4 ([2]; T 308.0 K (text 308.2 K), P 15 MPa, ρCO2 816.10 kg/m^3): 0.121 × 10^4
- Experimental mole fraction (y) in supercritical carbon dioxide, y × 10^4 ([2]; T 308.0 K (text 308.2 K), P 18 MPa, ρCO2 816.10 kg/m^3): 0.141 × 10^4
- Experimental mole fraction (y) in supercritical carbon dioxide, y × 10^4 ([2]; T 308.0 K (text 308.2 K), P 21 MPa, ρCO2 874.55 kg/m^3): 0.177 × 10^4
- Experimental mole fraction (y) in supercritical carbon dioxide, y × 10^4 ([2]; T 308.0 K (text 308.2 K), P 24 MPa, ρCO2 895.66 kg/m^3): 0.227 × 10^4
- Experimental mole fraction (y) in supercritical carbon dioxide, y × 10^4 ([2]; T 308.0 K (text 308.2 K), P 27 MPa, ρCO2 913.70 kg/m^3): 0.258 × 10^4
- Experimental mole fraction (y) in supercritical carbon dioxide, y × 10^4 ([2]; T 308.0 K (text 308.2 K), P 30 MPa, ρCO2 929.85 kg/m^3): 0.286 × 10^4
- Experimental mole fraction (y) in supercritical carbon dioxide, y × 10^4 ([2]; T 318.0 K (text 318.2 K), P 12 MPa, ρCO2 659.80 kg/m^3): 0.069 × 10^4
- Experimental mole fraction (y) in supercritical carbon dioxide, y × 10^4 ([2]; T 318.0 K (text 318.2 K), P 15 MPa, ρCO2 743.83 kg/m^3): 0.126 × 10^4
- Experimental mole fraction (y) in supercritical carbon dioxide, y × 10^4 ([2]; T 318.0 K (text 318.2 K), P 18 MPa, ρCO2 790.29 kg/m^3): 0.162 × 10^4
- Experimental mole fraction (y) in supercritical carbon dioxide, y × 10^4 ([2]; T 318.0 K (text 318.2 K), P 21 MPa, ρCO2 823.80 kg/m^3): 0.215 × 10^4
- Experimental mole fraction (y) in supercritical carbon dioxide, y × 10^4 ([2]; T 318.0 K (text 318.2 K), P 24 MPa, ρCO2 850.15 kg/m^3): 0.281 × 10^4
- Experimental mole fraction (y) in supercritical carbon dioxide, y × 10^4 ([2]; T 318.0 K (text 318.2 K), P 27 MPa, ρCO2 872.14 kg/m^3): 0.322 × 10^4
- Experimental mole fraction (y) in supercritical carbon dioxide, y × 10^4 ([2]; T 318.0 K (text 318.2 K), P 30 MPa, ρCO2 890.90 kg/m^3): 0.339 × 10^4
- Experimental mole fraction (y) in supercritical carbon dioxide, y × 10^4 ([2]; T 328.0 K (text 328.2 K), P 12 MPa, ρCO2 506.75 kg/m^3): 0.045 × 10^4
- Experimental mole fraction (y) in supercritical carbon dioxide, y × 10^4 ([2]; T 328.0 K (text 328.2 K), P 15 MPa, ρCO2 654.94 kg/m^3): 0.099 × 10^4
- Experimental mole fraction (y) in supercritical carbon dioxide, y × 10^4 ([2]; T 328.0 K (text 328.2 K), P 18 MPa, ρCO2 724.13 kg/m^3): 0.176 × 10^4
- Experimental mole fraction (y) in supercritical carbon dioxide, y × 10^4 ([2]; T 328.0 K (text 328.2 K), P 21 MPa, ρCO2 768.74 kg/m^3): 0.241 × 10^4
- Experimental mole fraction (y) in supercritical carbon dioxide, y × 10^4 ([2]; T 328.0 K (text 328.2 K), P 24 MPa, ρCO2 801.92 kg/m^3): 0.302 × 10^4
- Experimental mole fraction (y) in supercritical carbon dioxide, y × 10^4 ([2]; T 328.0 K (text 328.2 K), P 27 MPa, ρCO2 828.51 kg/m^3): 0.353 × 10^4
- Experimental mole fraction (y) in supercritical carbon dioxide, y × 10^4 ([2]; T 328.0 K (text 328.2 K), P 30 MPa, ρCO2 850.83 kg/m^3): 0.380 × 10^4
- Experimental mole fraction (y) in supercritical carbon dioxide, y × 10^4 ([2]; T 338.0 K (text 338.2 K), P 12 MPa, ρCO2 384.17 kg/m^3): 0.024 × 10^4
- Experimental mole fraction (y) in supercritical carbon dioxide, y × 10^4 ([2]; T 338.0 K (text 338.2 K), P 15 MPa, ρCO2 555.33 kg/m^3): 0.136 × 10^4
- Experimental mole fraction (y) in supercritical carbon dioxide, y × 10^4 ([2]; T 338.0 K (text 338.2 K), P 18 MPa, ρCO2 651.28 kg/m^3): 0.213 × 10^4
- Experimental mole fraction (y) in supercritical carbon dioxide, y × 10^4 ([2]; T 338.0 K (text 338.2 K), P 21 MPa, ρCO2 709.59 kg/m^3): 0.279 × 10^4
- Experimental mole fraction (y) in supercritical carbon dioxide, y × 10^4 ([2]; T 338.0 K (text 338.2 K), P 24 MPa, ρCO2 751.27 kg/m^3): 0.334 × 10^4
- Experimental mole fraction (y) in supercritical carbon dioxide, y × 10^4 ([2]; T 338.0 K (text 338.2 K), P 27 MPa, ρCO2 783.19 kg/m^3): 0.388 × 10^4
- Experimental mole fraction (y) in supercritical carbon dioxide, y × 10^4 ([2]; T 338.0 K (text 338.2 K), P 30 MPa, ρCO2 809.68 kg/m^3): 0.419 × 10^4
SMILES: CN(C)CCc1c[nH]c2ccc(Cn3cncn3)cc12 [Rizatriptan, Rizatriptan benzoate]
